System: MV-4-11 cells
Assay: Gene expression microarray analysis (Affymetrix PrimeView) and GSEA
Format: cell-based, human
Design: RFU PODN (11730768_x_at) / Fold change /veh PODN (11730768_x_at) / RFU LINC00158 (11744669_a_at) / Fold change /veh LINC00158 (11744669_a_at) / RFU DUSP10 (11751237_a_at) / Fold change /veh DUSP10 (11751237_a_at) / RFU ID3 (11757404_x_at) / Fold change /veh ID3 (11757404_x_at) / RFU PLEKHG5 (11737974_s_at) / Fold change /veh PLEKHG5 (11737974_s_at) / RFU LRRC4B (11730491_at) / Fold change /veh LRRC4B (11730491_at) / RFU GIMAP4 (11747438_a_at) / Fold change /veh GIMAP4 (11747438_a_at) / RFU KRT8 (11758183_x_at) / Fold change /veh KRT8 (11758183_x_at) / RFU CNN1 (11734310_a_at) / Fold change /veh CNN1 (11734310_a_at) / RFU VPS37D (11726825_at) / Fold change /veh VPS37D (11726825_at) / RFU C10orf10 (11716522_x_at) / Fold change /veh C10orf10 (11716522_x_at) / RFU KIR2DL2 /// KIR2DL4 /// KIR2DL5A /// KIR2DL5B /// KIR2DS1 /// KIR2DS2 /// KIR2DS3 /// KIR2DS4 /// KIR3DL3 /// KIR3DL3 /// KIR3DS1 (11738374_at) / Fold change /veh KIR2DL2 /// KIR2DL4 /// KIR2DL5A /// KIR2DL5B /// KIR2DS1 /// KIR2DS2 /// KIR2DS3 /// KIR2DS4 /// KIR3DL3 /// KIR3DL3 /// KIR3DS1 (11738374_at) / RFU C1QL1 (11718748_at) / Fold change /veh C1QL1 (11718748_at) / RFU TMPRSS4 (11747572_a_at) / Fold change /veh TMPRSS4 (11747572_a_at) / RFU HAMP (11756126_x_at) / Fold change /veh HAMP (11756126_x_at) / RFU RNFT2 (11725882_a_at) / Fold change /veh RNFT2 (11725882_a_at) / RFU NR4A2 (11747474_a_at) / Fold change /veh NR4A2 (11747474_a_at) / RFU ABCC12 (11746883_a_at) / Fold change /veh ABCC12 (11746883_a_at) / RFU TMEM136 (11760407_x_at) / Fold change /veh TMEM136 (11760407_x_at) / RFU CLDN22 /// WWC2 (11732394_at) / Fold change /veh CLDN22 /// WWC2 (11732394_at) / RFU HLA-DPB1 (11760878_x_at) / Fold change /veh HLA-DPB1 (11760878_x_at) / RFU SPINT1 (11716480_a_at) / Fold change /veh SPINT1 (11716480_a_at) / RFU GAP43 (11754022_s_at) / Fold change /veh GAP43 (11754022_s_at) / RFU A4GNT (11735810_at) / Fold change /veh A4GNT (11735810_at) / RFU PRB3 (11715151_x_at) / Fold change /veh PRB3 (11715151_x_at) / RFU TUBB4B (11761932_at) / Fold change /veh TUBB4B (11761932_at) / RFU CAPN14 (11732068_a_at) / Fold change /veh CAPN14 (11732068_a_at) / RFU TMCC2 (11721928_a_at) / Fold change /veh TMCC2 (11721928_a_at) / RFU IRGQ (11745062_a_at) / Fold change /veh IRGQ (11745062_a_at) / RFU FAM174B (11720279_a_at) / Fold change /veh FAM174B (11720279_a_at) / RFU TMPRSS4 (11748680_a_at) / Fold change /veh TMPRSS4 (11748680_a_at) / RFU FAM212B (11763350_a_at) / Fold change /veh FAM212B (11763350_a_at) / RFU PLEKHG5 (11743358_a_at) / Fold change /veh PLEKHG5 (11743358_a_at) / RFU ZSCAN30 (11745921_a_at) / Fold change /veh ZSCAN30 (11745921_a_at) / RFU CMKLR1 (11741424_a_at) / Fold change /veh CMKLR1 (11741424_a_at) / RFU LOC101060620 /// MAPK8IP1 (11723275_at) / Fold change /veh LOC101060620 /// MAPK8IP1 (11723275_at) / RFU SPTSSB (11747773_x_at) / Fold change /veh SPTSSB (11747773_x_at) / RFU PRSS12 (11739890_at) / Fold change /veh PRSS12 (11739890_at) / RFU BIN1 (11741810_x_at) / Fold change /veh BIN1 (11741810_x_at) / RFU WNT11 (11732464_a_at) / Fold change /veh WNT11 (11732464_a_at) / RFU C10orf10 (11716521_a_at) / Fold change /veh C10orf10 (11716521_a_at) / RFU C5orf56 (11738089_at) / Fold change /veh C5orf56 (11738089_at) / RFU CYB561 (11721691_x_at) / Fold change /veh CYB561 (11721691_x_at) / RFU ANKRD19P (11752326_a_at) / Fold change /veh ANKRD19P (11752326_a_at) / RFU OR2T12 /// OR2T33 /// OR2T8 (11738714_s_at) / Fold change /veh OR2T12 /// OR2T33 /// OR2T8 (11738714_s_at) / RFU VCAN (11748164_a_at) / Fold change /veh VCAN (11748164_a_at) / RFU JSRP1 (11732532_at) / Fold change /veh JSRP1 (11732532_at) / RFU KRTAP10-11 (11738290_x_at) / Fold change /veh KRTAP10-11 (11738290_x_at) / RFU MYO3A (11730013_a_at) / Fold change /veh MYO3A (11730013_a_at) / RFU EBF3 (11725865_a_at) / Fold change /veh EBF3 (11725865_a_at) / RFU CAMK2N1 (11719241_x_at) / Fold change /veh CAMK2N1 (11719241_x_at) / RFU C5orf56 (11738088_a_at) / Fold change /veh C5orf56 (11738088_a_at) / RFU OLFML3 (11715873_a_at) / Fold change /veh OLFML3 (11715873_a_at) / RFU LOC100653217 /// NTM (11731650_a_at) / Fold change /veh LOC100653217 /// NTM (11731650_a_at) / RFU MAPK11 (11762145_a_at) / Fold change /veh MAPK11 (11762145_a_at) / RFU FIZ1 (11724087_x_at) / Fold change /veh FIZ1 (11724087_x_at) / RFU OASL (11726364_x_at) / Fold change /veh OASL (11726364_x_at) / RFU SOX15 (11748057_x_at) / Fold change /veh SOX15 (11748057_x_at) / RFU CD79A (11719716_a_at) / Fold change /veh CD79A (11719716_a_at) / RFU HIST1H1D (11736915_at) / Fold change /veh HIST1H1D (11736915_at) / RFU CASKIN2 (11723855_a_at) / Fold change /veh CASKIN2 (11723855_a_at) / RFU LOC730098 (11760151_x_at) / Fold change /veh LOC730098 (11760151_x_at) / RFU OR4N2 (11742367_at) / Fold change /veh OR4N2 (11742367_at) / RFU PRRT2 (11749266_a_at) / Fold change /veh PRRT2 (11749266_a_at) / RFU SNX32 (11753110_a_at) / Fold change /veh SNX32 (11753110_a_at) / RFU CDHR5 (11726645_a_at) / Fold change /veh CDHR5 (11726645_a_at) / RFU RCAN1 (11760418_a_at) / Fold change /veh RCAN1 (11760418_a_at) / RFU FAM167A (11723789_a_at) / Fold change /veh FAM167A (11723789_a_at) / RFU FAM26E (11764081_at) / Fold change /veh FAM26E (11764081_at) / RFU ISYNA1 (11749810_s_at) / Fold change /veh ISYNA1 (11749810_s_at) / RFU ACY1 (11761880_at) / Fold change /veh ACY1 (11761880_at) / RFU 11764098_at / Fold change /veh 11764098_at / RFU SAMD14 (11745864_x_at) / Fold change /veh SAMD14 (11745864_x_at) / RFU NPB (11741838_a_at) / Fold change /veh NPB (11741838_a_at) / RFU TMPRSS6 (11731388_a_at) / Fold change /veh TMPRSS6 (11731388_a_at) / RFU KRTAP10-2 (11738614_at) / Fold change /veh KRTAP10-2 (11738614_at) / RFU ARHGAP8 /// PRR5-ARHGAP8 (11727945_x_at) / Fold change /veh ARHGAP8 /// PRR5-ARHGAP8 (11727945_x_at) / RFU KRTAP5-7 /// NADSYN1 (11734609_at) / Fold change /veh KRTAP5-7 /// NADSYN1 (11734609_at) / RFU RASL12 (11751679_a_at) / Fold change /veh RASL12 (11751679_a_at) / RFU CDKN2B (11736163_a_at) / Fold change /veh CDKN2B (11736163_a_at) / RFU PRF1 (11729649_at) / Fold change /veh PRF1 (11729649_at) / RFU, ZNF638 /// ZNF638-IT1 / Fold change vs veh, ZNF638 /// ZNF638-IT1 / RFU, PANK3 / Fold change vs veh, PANK3 / RFU, SH3YL1 / Fold change vs veh, SH3YL1 / RFU, ZEB2 / Fold change vs veh, ZEB2 / RFU, NRIP1 / Fold change vs veh, NRIP1 / RFU, PTTG1IP / Fold change vs veh, PTTG1IP / RFU, CAPN2 / Fold change vs veh, CAPN2 / RFU, MED14 / Fold change vs veh, MED14 / RFU, SNORA58 / Fold change vs veh, SNORA58 / RFU, C1orf63 / Fold change vs veh, C1orf63 / RFU, LRRFIP1 / Fold change vs veh, LRRFIP1 / RFU, NDUFAF7 / Fold change vs veh, NDUFAF7 / RFU, SLC12A2 / Fold change vs veh, SLC12A2 / RFU, IBTK / Fold change vs veh, IBTK / RFU, ESF1 / Fold change vs veh, ESF1 / Fold change vs veh, TMEM50B / RFU, TAOK1 / Fold change vs veh, TAOK1 / RFU, ACBD3 / Fold change vs veh, ACBD3 / RFU, TMA16 / Fold change vs veh, TMA16 / RFU, RWDD3 / Fold change vs veh, RWDD3 / RFU, BCAT1 / Fold change vs veh, BCAT1 / RFU, EDEM3 / Fold change vs veh, EDEM3 / RFU, TMEM33 / Fold change vs veh, TMEM33 / RFU, WDR75 / Fold change vs veh, WDR75 / RFU, AHCTF1 / Fold change vs veh, AHCTF1 / RFU, TFRC / Fold change vs veh, TFRC / RFU, ZDHHC17 / Fold change vs veh, ZDHHC17 / RFU, NOM1 / Fold change vs veh, NOM1 / RFU, ARL8B / Fold change vs veh, ARL8B / RFU, ZBTB11 / Fold change vs veh, ZBTB11 / RFU, TAMM41 / Fold change vs veh, TAMM41 / RFU, KIAA1704 /// LOC100996395 / Fold change vs veh, KIAA1704 /// LOC100996395 / RFU, ING1 / Fold change vs veh, ING1 / RFU, TRMT61B / Fold change vs veh, TRMT61B / RFU, FUBP3 / Fold change vs veh, FUBP3 / RFU, TP53 / Fold change vs veh, TP53 / RFU, TNKS2 / Fold change vs veh, TNKS2 / RFU, ZFP14 / Fold change vs veh, ZFP14 / RFU, ACTR2 / Fold change vs veh, ACTR2 / RFU, PPP3R1 / Fold change vs veh, PPP3R1 / RFU, PIK3R1 / Fold change vs veh, PIK3R1 / RFU, HNRNPA1 / Fold change vs veh, HNRNPA1 / RFU, RNF170 / Fold change vs veh, RNF170 / RFU, ZNF28 / Fold change vs veh, ZNF28 / RFU, RNGTT / Fold change vs veh, RNGTT / RFU, OGT / Fold change vs veh, OGT / RFU, BRD1 / Fold change vs veh, BRD1 / RFU, MARS / Fold change vs veh, MARS / RFU, ZNF655 / Fold change vs veh, ZNF655 / RFU, FAHD1 / Fold change vs veh, FAHD1 / RFU, BDP1 / Fold change vs veh, BDP1 / RFU, LRRCC1 / Fold change vs veh, LRRCC1 / RFU, ARID1A / Fold change vs veh, ARID1A / RFU, ZNF146 / Fold change vs veh, ZNF146 / RFU, ZNF330 / Fold change vs veh, ZNF330 / RFU, GPN3 / Fold change vs veh, GPN3 / RFU, C9orf123 / Fold change vs veh, C9orf123 / RFU, N4BP2L2 / Fold change vs veh, N4BP2L2 / RFU, ARFIP1 / Fold change vs veh, ARFIP1 / RFU, FAM179B / Fold change vs veh, FAM179B / RFU, BCL10 / Fold change vs veh, BCL10 / RFU, UHRF1BP1L / Fold change vs veh, UHRF1BP1L / RFU, BET1 / Fold change vs veh, BET1 / RFU, CNOT2 / Fold change vs veh, CNOT2 / RFU, ZNF268 / Fold change vs veh, ZNF268 / Fold change vs veh, ZNF507 / RFU, DGCR2 / Fold change vs veh, DGCR2 / RFU, WDSUB1 / Fold change vs veh, WDSUB1 / Fold change vs veh, HSP90B1 /// MIR3652 / RFU, ADSS / Fold change vs veh, ADSS / RFU, GK / Fold change vs veh, GK / RFU, ZNF148 / Fold change vs veh, ZNF148 / RFU, TAF9 / Fold change vs veh, TAF9 / RFU, SLC1A5 / Fold change vs veh, SLC1A5 / RFU, SLMO2 / Fold change vs veh, SLMO2 / RFU, ABCC4 / Fold change vs veh, ABCC4 / RFU, LOC101060439 /// RAP1B / Fold change vs veh, LOC101060439 /// RAP1B / RFU, RFX7 / Fold change vs veh, RFX7 / RFU, GTPBP10 / Fold change vs veh, GTPBP10 / RFU, CNEP1R1 / Fold change vs veh, CNEP1R1 / RFU, BIVM-ERCC5 /// ERCC5 / Fold change vs veh, BIVM-ERCC5 /// ERCC5 / RFU, ILF3 / Fold change vs veh, ILF3 / RFU 11762660_at / Fold change /veh 11762660_at / RFU VCAN (11757783_s_at) / Fold change /veh VCAN (11757783_s_at) / RFU DDX43 (11728927_at) / Fold change /veh DDX43 (11728927_at) / RFU KRT8 (11758188_x_at) / Fold change /veh KRT8 (11758188_x_at) / RFU NKD1 (11759106_at) / Fold change /veh NKD1 (11759106_at) / RFU SRD5A1 (11742802_a_at) / Fold change /veh SRD5A1 (11742802_a_at) / RFU TPSAB1 /// TPSB2 (11721975_s_at) / Fold change /veh TPSAB1 /// TPSB2 (11721975_s_at) / RFU GSTM3 (11746129_a_at) / Fold change /veh GSTM3 (11746129_a_at) / RFU IL23R (11737362_x_at) / Fold change /veh IL23R (11737362_x_at) / RFU TMEM51 (11727254_a_at) / Fold change /veh TMEM51 (11727254_a_at) / RFU PIWIL2 (11732686_x_at) / Fold change /veh PIWIL2 (11732686_x_at) / RFU ORM1 (11744905_x_at) / Fold change /veh ORM1 (11744905_x_at) / RFU CCDC152 (11743942_at) / Fold change /veh CCDC152 (11743942_at) / RFU ECM1 (11717891_a_at) / Fold change /veh ECM1 (11717891_a_at) / RFU IL23R (11748794_a_at) / Fold change /veh IL23R (11748794_a_at) / RFU TNFAIP8L3 (11732012_x_at) / Fold change /veh TNFAIP8L3 (11732012_x_at) / RFU MBOAT4 (11741988_at) / Fold change /veh MBOAT4 (11741988_at) / RFU 11764193_at / Fold change /veh 11764193_at / RFU TMEM53 (11763286_at) / Fold change /veh TMEM53 (11763286_at) / RFU MAGEB2 (11727129_at) / Fold change /veh MAGEB2 (11727129_at) / RFU TMEM200A (11744735_a_at) / Fold change /veh TMEM200A (11744735_a_at) / RFU CCDC152 (11751479_a_at) / Fold change /veh CCDC152 (11751479_a_at) / RFU FAM211A (11726209_a_at) / Fold change /veh FAM211A (11726209_a_at) / RFU RGS16 (11746705_a_at) / Fold change /veh RGS16 (11746705_a_at) / RFU VCAN (11755009_s_at) / Fold change /veh VCAN (11755009_s_at) / RFU RHOB (11743442_s_at) / Fold change /veh RHOB (11743442_s_at) / RFU RGS16 (11720943_a_at) / Fold change /veh RGS16 (11720943_a_at) / RFU RGS16 (11720944_at) / Fold change /veh RGS16 (11720944_at) / RFU, VPS4B / Fold change vs veh, VPS4B / RFU, CREB1 / Fold change vs veh, CREB1 / RFU, DNAJC13 / Fold change vs veh, DNAJC13 / RFU, GNAQ / Fold change vs veh, GNAQ / RFU, CDK5R1 / Fold change vs veh, CDK5R1 / RFU, ZRANB3 / Fold change vs veh, ZRANB3 / RFU, CUL4A / Fold change vs veh, CUL4A / RFU, CCNY / Fold change vs veh, CCNY / RFU, UFL1 / Fold change vs veh, UFL1 / RFU, COG3 / Fold change vs veh, COG3 / RFU, DIAPH2 / Fold change vs veh, DIAPH2 / RFU, SKA2 / Fold change vs veh, SKA2 / RFU, AFF3 / Fold change vs veh, AFF3 / RFU, LMF1 / Fold change vs veh, LMF1 / RFU, IPO11 / Fold change vs veh, IPO11 / RFU, DFFB / Fold change vs veh, DFFB / RFU, FOXP1 / Fold change vs veh, FOXP1 / RFU, CARD8 / Fold change vs veh, CARD8 / RFU, STRN3 / Fold change vs veh, STRN3 / RFU, ADK / Fold change vs veh, ADK / RFU, RASSF2 / Fold change vs veh, RASSF2 / RFU, WIPF1 / Fold change vs veh, WIPF1 / RFU, LARP1B / Fold change vs veh, LARP1B / RFU, RASA1 / Fold change vs veh, RASA1 / RFU, RB1 / Fold change vs veh, RB1 / RFU, PPFIA1 / Fold change vs veh, PPFIA1 / RFU, MAT2A / Fold change vs veh, MAT2A / RFU, CCT5 / Fold change vs veh, CCT5 / RFU, WDR92 / Fold change vs veh, WDR92 / RFU, CUX1 / Fold change vs veh, CUX1 / RFU, TTC7A / Fold change vs veh, TTC7A / RFU, TMEM135 / Fold change vs veh, TMEM135 / RFU, DEPTOR / Fold change vs veh, DEPTOR / RFU, CPM / Fold change vs veh, CPM / RFU, DNAJB6 / Fold change vs veh, DNAJB6 / RFU, CACNA2D3 / Fold change vs veh, CACNA2D3 / RFU, DTX4 / Fold change vs veh, DTX4 / RFU, TFCP2 / Fold change vs veh, TFCP2 / RFU, GMCL1 /// GMCL1P1 / Fold change vs veh, GMCL1 /// GMCL1P1 / RFU, AEBP2 / Fold change vs veh, AEBP2 / RFU, SNHG1 /// SNORD22 /// SNORD25 /// SNORD26 /// SNORD27 /// SNORD28 /// SNORD29 /// SNORD31 / Fold change vs veh, SNHG1 /// SNORD22 /// SNORD25 /// SNORD26 /// SNORD27 /// SNORD28 /// SNORD29 /// SNORD31 / Fold change (Aza/veh), C12orf56 (ProbeSet 11735607_a_at) / Fold change (ACY-1035/veh), C12orf56 (ProbeSet 11735607_a_at) / Fold change (Aza/veh), FGFR1OP (ProbeSet 11751329_s_at) / Fold change (ACY-1035/veh), FGFR1OP (ProbeSet 11751329_s_at) / Fold change (Aza/veh), VPS36 (ProbeSet 11739960_a_at) / Fold change (ACY-1035/veh), VPS36 (ProbeSet 11739960_a_at) / RFU SYPL1 (11715823_x_at) / Fold change /veh SYPL1 (11715823_x_at) / RFU IGFBP7 (11715501_s_at) / Fold change /veh IGFBP7 (11715501_s_at) / RFU REEP3 (11722064_at) / Fold change /veh REEP3 (11722064_at) / RFU IGLL1 (11728026_x_at) / Fold change /veh IGLL1 (11728026_x_at): dose or concentration left out as unconfirmed
Details: ProbeSet 11716865_a_at; LIST B

Nc1ncn([C@@H]2O[C@H](CO)[C@@H](O)[C@H]2O)c(=O)n1 [azacitidine]
Fold change vs veh, SLC1A5: 0.87
